According to US10077261B2, “Imidazolin-5-one derivative useful as FASN inhibitors for the treatment of cancer” (Janssen Pharmaceutica NV, priority 2012, dated 2018):
pIC50: −log10 of the molar value.

Key:
[1] = tested on: PC-3M-Luc-C6 prostate cells; experiment: In vitro PC-3M-Luc-C6 prostate cell proliferation assay in lipid reduced medium; assay type: cell-based; settings: 96 h, read-out: pIC50 PC-3M-Luc-C6 prostate cell (converted)
[2] = tested on: LNCaP-Vancouver prostate cells; experiment: In vitro LNCaP Vancouver prostate cell proliferation assay in lipid reduced medium; assay type: cell-based; settings: read-out: pIC50 LNCaP_Vancouver prostate cell (converted)
[3] = target: Fatty Acid Synthase Keto-reductase Domain (FASN KR) (Homo sapiens, UniProt P49327); experiment: Fatty Acid Synthase keto-reductase domain (FASN KR) inhibition, NADPH oxidation at 340 nm
Fatty Acid Synthase Keto-reductase Domain (FASN KR), sequence (P49327 whole entry, the tested form may be a part): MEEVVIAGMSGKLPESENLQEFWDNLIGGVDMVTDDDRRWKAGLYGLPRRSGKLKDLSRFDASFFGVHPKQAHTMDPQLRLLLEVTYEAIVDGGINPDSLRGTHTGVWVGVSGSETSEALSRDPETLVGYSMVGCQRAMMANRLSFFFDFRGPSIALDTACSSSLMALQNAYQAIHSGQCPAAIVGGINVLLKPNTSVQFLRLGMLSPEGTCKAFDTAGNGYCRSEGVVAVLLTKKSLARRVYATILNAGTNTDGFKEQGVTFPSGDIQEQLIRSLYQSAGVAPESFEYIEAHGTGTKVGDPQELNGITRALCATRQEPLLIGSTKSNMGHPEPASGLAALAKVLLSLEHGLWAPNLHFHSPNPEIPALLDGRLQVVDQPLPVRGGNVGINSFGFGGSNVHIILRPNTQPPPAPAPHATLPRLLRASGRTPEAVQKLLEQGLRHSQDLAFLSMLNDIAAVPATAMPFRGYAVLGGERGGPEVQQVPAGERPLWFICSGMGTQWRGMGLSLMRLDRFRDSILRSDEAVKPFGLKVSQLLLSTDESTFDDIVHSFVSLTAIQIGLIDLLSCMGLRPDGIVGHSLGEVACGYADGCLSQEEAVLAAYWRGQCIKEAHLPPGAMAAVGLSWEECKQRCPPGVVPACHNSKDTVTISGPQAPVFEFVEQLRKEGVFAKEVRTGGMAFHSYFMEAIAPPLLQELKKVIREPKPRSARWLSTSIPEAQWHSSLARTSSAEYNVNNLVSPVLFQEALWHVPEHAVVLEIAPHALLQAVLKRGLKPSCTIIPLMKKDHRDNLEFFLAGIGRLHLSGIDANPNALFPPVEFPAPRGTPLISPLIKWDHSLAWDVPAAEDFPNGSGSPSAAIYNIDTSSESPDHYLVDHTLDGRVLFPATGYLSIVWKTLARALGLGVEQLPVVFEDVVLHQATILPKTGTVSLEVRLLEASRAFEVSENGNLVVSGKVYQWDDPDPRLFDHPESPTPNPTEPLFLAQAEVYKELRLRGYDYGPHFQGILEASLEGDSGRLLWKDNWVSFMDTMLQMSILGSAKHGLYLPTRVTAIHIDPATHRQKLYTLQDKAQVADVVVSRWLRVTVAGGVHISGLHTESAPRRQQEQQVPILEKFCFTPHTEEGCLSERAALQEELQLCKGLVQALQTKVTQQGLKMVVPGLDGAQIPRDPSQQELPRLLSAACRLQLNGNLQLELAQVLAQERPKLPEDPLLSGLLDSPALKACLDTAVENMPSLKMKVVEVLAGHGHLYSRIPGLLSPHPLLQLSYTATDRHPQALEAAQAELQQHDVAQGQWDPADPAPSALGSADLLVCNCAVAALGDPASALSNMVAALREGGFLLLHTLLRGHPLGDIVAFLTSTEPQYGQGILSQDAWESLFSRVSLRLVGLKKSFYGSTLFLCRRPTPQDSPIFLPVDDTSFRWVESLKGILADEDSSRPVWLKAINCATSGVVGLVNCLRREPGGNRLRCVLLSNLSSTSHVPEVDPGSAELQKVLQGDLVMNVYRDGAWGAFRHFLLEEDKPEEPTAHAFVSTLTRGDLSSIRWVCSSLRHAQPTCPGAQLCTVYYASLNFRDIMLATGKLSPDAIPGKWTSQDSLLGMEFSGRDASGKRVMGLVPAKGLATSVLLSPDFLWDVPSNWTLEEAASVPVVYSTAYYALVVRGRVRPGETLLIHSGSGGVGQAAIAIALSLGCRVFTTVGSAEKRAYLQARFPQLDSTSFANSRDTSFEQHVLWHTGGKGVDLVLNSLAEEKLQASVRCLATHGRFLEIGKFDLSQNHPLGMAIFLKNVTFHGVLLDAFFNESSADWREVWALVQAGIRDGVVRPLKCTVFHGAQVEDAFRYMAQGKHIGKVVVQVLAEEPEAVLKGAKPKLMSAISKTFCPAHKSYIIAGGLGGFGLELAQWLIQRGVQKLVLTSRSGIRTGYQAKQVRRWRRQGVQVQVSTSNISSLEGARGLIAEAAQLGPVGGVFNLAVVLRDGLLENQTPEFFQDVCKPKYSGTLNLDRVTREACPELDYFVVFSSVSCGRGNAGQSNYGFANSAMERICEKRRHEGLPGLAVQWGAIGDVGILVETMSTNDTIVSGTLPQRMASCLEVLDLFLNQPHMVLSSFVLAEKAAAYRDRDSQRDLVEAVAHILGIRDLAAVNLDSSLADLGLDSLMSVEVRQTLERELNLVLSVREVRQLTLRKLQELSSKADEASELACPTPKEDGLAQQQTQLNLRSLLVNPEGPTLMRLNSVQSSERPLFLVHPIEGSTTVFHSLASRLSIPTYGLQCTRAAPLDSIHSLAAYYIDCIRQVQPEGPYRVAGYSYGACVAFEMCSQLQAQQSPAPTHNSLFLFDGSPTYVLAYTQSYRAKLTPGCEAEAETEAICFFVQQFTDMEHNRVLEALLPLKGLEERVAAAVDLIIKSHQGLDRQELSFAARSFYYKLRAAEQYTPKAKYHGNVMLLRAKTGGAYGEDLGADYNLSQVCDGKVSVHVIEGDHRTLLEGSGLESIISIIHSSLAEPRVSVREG
Description: After 20 minutes incubation at room temperature the plate was measured again (T2).
The decrease in absorbance was calculated as (Absorbance before incubation T1)−(Absorbance following incubation T2).
A plot of Controlmin versus test compound concentration was fitted to a 4-parameter logistic curve using a non-linear least squares regression method.

A2780 ovarian cells [4] = experiment: A2780 ovarian cell proliferation assay in lipid reduced medium, with palmitate (MTT); assay type: cell-based; settings: Homo sapiens, A2780, 96 h; read-out: pIC50 A2780 Ovarian Cell, With Palmitate (converted)
Method in brief: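 In this palmitate-supplemented format, compound dilutions (30 μM down to 0.01 μM) are added to cells in lipid-reduced serum with 25 μM palmitate, 0.2% fatty-acid-free BSA and 0.25% ethanol. After four days (96 h) MTT absorbance at 544 nm is recorded and fitted by minimum sum of squares.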

[5] = target: T1, hFASN enzyme (full length) (Homo sapiens, UniProt P49327); experiment: Fatty Acid Synthase (FASN) inhibition scintillation proximity assay; assay type: biochemical; settings: for inhibition at 10 µM: read-out: Human FASN % inhibition @ 10 μM, 10 μM test compound; for IC50: read-out: Human FASN pIC50 (converted)
T1 construct: 10 μL hFASN enzyme (full length, 300 ng, purified in house); made in house
T1 sequence (P49327 whole entry): as the sequence (P49327 whole entry, the tested form may be a part) above
Method in brief: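 Scintillation proximity format: in-house full-length enzyme, 300 ng per well, pH 7.5 phosphate/DTT buffer, ³H-acetyl-CoA and malonyl-CoA. Emission counted on LEADseeker at 610 nm at least 24 h after stopping.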

A2780 ovarian cells [6] = experiment: A2780 ovarian cell proliferation assay in lipid reduced medium, without palmitate (MTT); assay type: cell-based; settings: Homo sapiens, A2780, 96 h; read-out: pIC50 A2780 Ovarian Cell, Without Palmitate (converted)

IC50 [1] | IC50 [2] | pIC50 [3] | IC50 (A2780 ovarian cells [4]) | inhibition at 10 µM [5] | IC50 [5] | IC50 (A2780 ovarian cells [6]) | Compound
0.0204 µM | 0.0794 µM | 7.10 | 6.92 µM | 105% | 0.0363 µM | 0.038 µM | Cc1cc(-c2ccc(-c3cnn(C4CC4)c3)cc2)ccc1C1=NC2(CC2)C(=O)N1CC1CN(C(=O)C2(C)CC2)C1 [compound 337, 5-(4′-(1-cyclopropyl-1H-pyrazol-4-yl)-3-methyl-[1,1′-biphenyl]-4-yl)-6-((1-(1-methylcyclopropanecarbonyl)azetidin-3-yl)methyl)-4,6-diazaspiro[2.4]hept-4-en-7-one]
0.575 µM | 0.457 µM | 6.37 | > 10 µM | 96% | 0.324 µM | 1.62 µM | O=C(C1CC1)N1CC[C@H](CN2C(=O)C3(CC3)N=C2c2ccc(-c3ccc(-c4cccc(Cl)c4)cc3)cc2)C1 [compound 412, 5-(3″-Chloro-1,1′:4′,1″-terphenyl-4-yl)-6-{[(3S)-1-(cyclopropylcarbonyl)pyrrolidin-3-yl]methyl}-4,6-diazaspiro[2.4]hept-4-en-7-one]
0.214 µM | 0.631 µM | 6.52 | > 10 µM | 96% | 0.162 µM | ~0.123 µM | Cn1nc(CO)c2ccc(-c3ccc(C4=NC5(CC5)C(=O)N4C[C@@H]4CCN(C(=O)C5CC5)C4)cc3)cc21 [compound 485, 6-{[(3R)-1-(Cyclopropylcarbonyl)pyrrolidin-3-yl]methyl}-5-{4-[3-(hydroxymethyl)-1-methyl-1H-indazol-6-yl]phenyl}-4,6-diazaspiro[2.4]hept-4-en-7-one]
1.58 µM | 4.57 µM | 5.49 | – | 99% | 0.794 µM | – | Cn1ncc2cc(-c3ccc(C4=NC5(CCOC5)C(=O)N4C[C@@H]4CCN(C(=O)[C@H]5CCCO5)C4)cc3)ccc21 (stereo partly drawn) [compound 692, 2-[4-(1-Methyl-1H-indazol-5-yl)phenyl]-3-({(3R)-1-[(2R)-tetrahydro-furan-2-ylcarbonyl]pyrrolidin-3-yl}metrhyl)-7-oxa-1,3-diazaspiro[4.4]non-1-en-4-one]
~0.0324 µM | 0.141 µM | 7.34 | – | 99% | 0.0257 µM | – | Cn1ccc2cc(-c3ccc(C4=NC5(CC5)C(=O)N4CC4CN(C(=O)C5CC5)C4)cc3)ccc21 [compound 344, 6-((1-(cyclopropanecarbonyl)azetidin-3-yl)methyl)-5-(4-(1-methyl-1H-indol-5-yl)phenyl)-4,6-diazaspiro[2.4]hept-4-en-7-one]
~0.0525 µM | 0.123 µM | 7.12 | – | 101% | 0.0759 µM | – | O=C(C1CC1)N1CC[C@@H](CN2C(=O)C3(CC3)N=C2c2ccc(-c3ccc4cncnc4c3)cc2)C1 [compound 312, (R)-6-((1-(cyclopropanecarbonyl)pyrrolidin-3-yl)methyl)-5-(4-(quinazolin-7-yl)phenyl)-4,6-diazaspiro[2.4]hept-4-en-7-one]
~0.891 µM | 4.68 µM | 5.50 | – | 94% | 0.355 µM | – | O=C(C1CC1)N1CC(CN2C(=O)C3(CC3)N=C2c2ccc(-c3ccc4cccnc4n3)cc2)C1 [compound 511, 6-{[1-(Cyclopropylcarbonyl)azetidin-3-yl]methyl}-5-[4-(1,8-naphthyridin-2-yl)phenyl]-4,6-diazaspiro[2.4]hept-4-en-7-one]
4.68 µM | 9.12 µM | 5.19 | – | 87% | 0.776 µM | – | O=C([C@H]1CCCO1)N1CC(CN2C(=O)C3(CCOC3)N=C2c2ccc(-c3ccc4occc4c3)cc2)C1 (stereo partly drawn) [compound 720, 2-[4-(1-Benzofuran-5-yl)phenyl]-3-({1-[(2R)-tetrahydro-furan-2-ylcarbonyl]azetidin-3-yl}methyl)-7-oxa-1,3-diazaspiro[4.4]non-1-en-4-one]
~0.234 µM | ~2.51 µM | 6.39 | – | 99% | 0.178 µM | – | Cn1cc(-c2ccc(-c3ccc(C4=NC5(CCOCC5)C(=O)N4C[C@@H]4CCN(C(=O)C5CC5)C4)cc3)cc2)cn1 [compound 655, 3-{[(3R)-1-(cyclopropylcarbonyl)pyrrolidin-3-yl]methyl}-2-[4′-(1-methyl-1H-pyrazol-4-yl)biphenyl-4-yl]-8-oxa-1,3-diazaspiro[4.5]dec-1-en-4-one]
0.575 µM | 2.4 µM | 5.96 | – | 98% | 0.204 µM | – | COC(=O)N1CC2(C1)N=C(c1ccc(-c3ccc(-c4cnn(C)c4)cc3)cc1)N(C[C@@H]1CCN(C(=O)[C@H]3CCCO3)C1)C2=O [compound 727, Methyl 6-[4′-(1-methyl-1H-pyrazol-4-yl)biphenyl-4-yl]-8-oxo-7-({(3R)-1-[(2R)-tetrahydro-furan-2-ylcarbonyl]pyrrolidin-3-yl}methyl)-2,5,7-triazaspiro[3.4]ect-5-ene-2-carboxylate]
0.123 µM | 0.631 µM | 6.60 | – | 98% | 0.0661 µM | – | O=C(C1CC1)N1CC(CN2C(=O)C3(CC3)N=C2c2ccc(-c3ccc4cccnc4c3F)cc2)C1 [compound 315, 6-((1-(cyclopropanecarbonyl)azetidin-3-yl)methyl)-5-(4-(8-fluoroquinolin-7-yl)phenyl)-4,6-diazaspiro[2.4]hept-4-en-7-one]
~5.75 µM | 6.92 µM | 5.18 | – | 86% | 0.871 µM | – | O=C([C@H]1CCCO1)N1CC(CN2C(=O)C3(CCOCC3)N=C2c2ccc(-c3ccc4occc4c3)cc2)C1 [compound 704, 2-[4-(1-Benzofuran-5-yl)phenyl]-3-({1-[(2R)-tetrahydro-furan-2-ylcarbonyl]azetidin-3-yl}methyl)-8-oxa-1,3-diazaspiro[4.5]dec-1-en-4-one]
~0.813 µM | ~4.9 µM | 5.50 | – | 94% | 0.457 µM | – | Cn1ncc2cc(-c3ccc(C4=NC5(CCOCC5)C(=O)N4C[C@@H]4CCN(C(=O)[C@H]5CCCO5)C4)cc3)ccc21 [compound 674, 2-[4-(1-Methyl-1H-indazol-5-yl)phenyl]-3-({(3R)-1-[(2R)-tetrahydro-furan-2-ylcarbonyl]pyrrolidin-3-yl}methyl)-8-oxa-1,3-diazaspiro[4.5]dec-1-en-4-one]
0.151 µM | 0.525 µM | 6.50 | – | 100% | 0.0646 µM | – | COC(=O)N1CC2(C1)N=C(c1ccc(-c3ccc4cccnc4c3)cc1)N(C[C@@H]1CCN(C(=O)C3CC3)C1)C2=O [compound 728, Methyl 7-{[(3R)-1-(cyclopropylcarbonyl)pyrrolidin-3-yl]methyl}-8-oxo-6-(4-quinolin-7-ylphenyl)-2,5,7-triazaspiro[3.4]ect-5-ene-2-carboxylate]
5.13 µM | > 10 µM | 5.27 | – | 89% | ~0.724 µM | – | CC(O)C(=O)N1CC(CN2C(=O)C3(CCOCC3)N=C2c2ccc(-c3ccc4cccnc4c3)cc2)C1 (stereo not drawn) [compound 699, 3-{[1-(2-Hydroxypropanoyl)azetidin-3-yl]methyl}-2-(4-quinolin-7-ylphenyl)-8-oxa-1,3-diazaspiro[4.5]dec-1-en-4-one]
~0.912 µM | 3.8 µM | 6.07 | – | 97% | 0.135 µM | – | COC(=O)N1CC2(C1)N=C(c1ccc(-c3ccc4occc4c3)cc1)N(C[C@@H]1CCN(C(=O)[C@H]3CCCO3)C1)C2=O [compound 735, Methyl 6-[4-(1-benzofuran-5-yl)phenyl]-8-oxo-7-({(3R)-1-[(2T)-tetrahydro-furan-2-ylcarbonyl]pyrrolidin-3-yl}methyl)-2,5,7-triazaspiro[3.4]oct-5-ene-2-carboxylate]
1.26 µM | ~5.25 µM | 5.82 | – | 88% | 0.646 µM | – | Cn1cc(-c2ccc(-c3ccc(C4=NC5(CC5)C(=O)N4CC4CN(C(=O)C5CC5)C4)cc3)cn2)cn1 [compound 517, 6-{[1-(Cyclopropylcarbonyl)azetidin-3-yl]methyl}-5-{4-[6-(1-methyl-1H-pyrazol-4-yl)pyridin-3-yl]phenyl}-4,6-diazaspiro[2.4]hept-4-en-7-one]
0.0977 µM | ~0.407 µM | 6.45 | – | 102% | 0.1 µM | – | COC(=O)N1CC2(C1)N=C(c1ccc(-c3ccc4cccnc4c3)cc1)N(C[C@@H]1CCN(C(=O)[C@H]3CCCO3)C1)C2=O [compound 730, Methyl 8-oxo-6-(4-quinolin-7-ylphenyl)-7-({(3R)-1-[(2R)-tetrahydro-furan-2-ylcarbonyl]pyrrolidin-3-yl}methyl)-2,5,7-triazaspiro[3.4]oct-5-ene-2-carboxylate]
